US20240116922A1, “IMIDAZO[1,2-A]PYRIDINE DERIVATIVES AS IRAK4 INHIBITORS AND THEIR USE IN THE TREATMENT OF DISEASE” (BIOGEN MA INC., priority 2020, published 2024)
≈ marks a conversion by molar mass, not a printed value. Where a name gives a salt, the structure may show the parent alone.

Columns and labels:
[1] = molecular target: IRAK4 (Homo sapiens (Human), UniProt Q9NWZ3); experiment: IRAK4 MSD biochemical assay (2-hour 1 mM ATP); settings: 0.1 nM IRAK4, 1 mM ATP, 2 hour at room temperature
[2] = Kinetic solubility assay (CLND), pH 6.8; format: physicochemical; settings: aqueous buffer, kinetic from dmso stock; potassium phosphate buffer pH 6.8, 2% DMSO, 24 hours at ambient temperature
[3] = molecular target: MDR1 (Homo sapiens (Human), UniProt P08183); experiment: in vitro; settings: MDCK-MDR1
Sequence of MDR1 (P08183 whole entry): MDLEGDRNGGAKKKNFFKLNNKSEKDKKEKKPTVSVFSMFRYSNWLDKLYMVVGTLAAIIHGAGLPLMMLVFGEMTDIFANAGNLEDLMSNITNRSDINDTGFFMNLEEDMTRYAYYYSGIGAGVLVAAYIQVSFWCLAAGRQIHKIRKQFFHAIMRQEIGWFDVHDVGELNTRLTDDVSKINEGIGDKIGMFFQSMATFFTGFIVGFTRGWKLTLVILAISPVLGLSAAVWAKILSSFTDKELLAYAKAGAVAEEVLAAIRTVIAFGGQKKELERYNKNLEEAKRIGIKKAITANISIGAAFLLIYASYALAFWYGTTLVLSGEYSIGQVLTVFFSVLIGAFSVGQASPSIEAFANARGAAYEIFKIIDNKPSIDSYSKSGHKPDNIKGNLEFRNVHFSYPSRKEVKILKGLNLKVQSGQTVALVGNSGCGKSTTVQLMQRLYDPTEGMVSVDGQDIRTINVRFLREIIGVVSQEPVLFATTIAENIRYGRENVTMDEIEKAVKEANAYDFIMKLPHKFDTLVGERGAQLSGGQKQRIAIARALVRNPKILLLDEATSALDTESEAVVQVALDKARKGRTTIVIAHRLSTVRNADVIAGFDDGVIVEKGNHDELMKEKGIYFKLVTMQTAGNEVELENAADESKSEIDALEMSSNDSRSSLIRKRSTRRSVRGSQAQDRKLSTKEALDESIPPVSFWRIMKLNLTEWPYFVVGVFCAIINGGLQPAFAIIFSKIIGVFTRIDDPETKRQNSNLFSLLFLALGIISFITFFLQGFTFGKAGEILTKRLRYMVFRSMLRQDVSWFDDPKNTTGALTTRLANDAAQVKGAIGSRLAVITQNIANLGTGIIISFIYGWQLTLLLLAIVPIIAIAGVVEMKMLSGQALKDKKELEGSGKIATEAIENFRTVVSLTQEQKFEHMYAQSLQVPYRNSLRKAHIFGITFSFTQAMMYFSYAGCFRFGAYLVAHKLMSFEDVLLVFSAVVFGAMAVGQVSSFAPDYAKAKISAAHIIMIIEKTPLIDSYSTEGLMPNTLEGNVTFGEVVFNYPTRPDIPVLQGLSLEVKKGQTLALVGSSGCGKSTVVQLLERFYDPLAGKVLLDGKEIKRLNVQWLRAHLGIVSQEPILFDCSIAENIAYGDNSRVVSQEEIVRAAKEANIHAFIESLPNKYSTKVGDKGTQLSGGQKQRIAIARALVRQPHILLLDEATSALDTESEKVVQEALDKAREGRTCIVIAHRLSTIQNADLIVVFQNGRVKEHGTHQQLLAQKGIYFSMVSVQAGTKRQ

Sequence of IRAK4 (Q9NWZ3 whole entry): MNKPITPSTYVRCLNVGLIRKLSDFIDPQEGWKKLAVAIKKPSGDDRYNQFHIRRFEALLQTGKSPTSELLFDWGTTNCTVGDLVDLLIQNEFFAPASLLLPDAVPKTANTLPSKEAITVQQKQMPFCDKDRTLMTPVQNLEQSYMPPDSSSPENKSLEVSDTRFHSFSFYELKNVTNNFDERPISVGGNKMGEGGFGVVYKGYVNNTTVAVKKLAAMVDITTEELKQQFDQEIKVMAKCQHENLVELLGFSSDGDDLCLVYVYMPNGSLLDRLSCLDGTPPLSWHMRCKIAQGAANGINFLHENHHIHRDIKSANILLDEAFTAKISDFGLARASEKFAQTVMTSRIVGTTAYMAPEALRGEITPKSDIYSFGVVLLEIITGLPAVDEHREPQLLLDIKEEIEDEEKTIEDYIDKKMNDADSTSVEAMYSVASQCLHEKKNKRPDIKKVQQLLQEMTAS

SMILES | IC50 [1] [nM] | solubility kinetic at 24 h [2] [µg/mL] | efflux ratio at 120 min, 1 μM [3]
CC(C)Oc1cc2nc([C@]34CC[C@](C)(C3)OC4)cn2cc1C(=O)Nc1ccnn(C2CC2)c1=O [Example 75, N-(2-cyclopropyl-3-oxo-2,3-dihydropyridazin-4-yl)-7-isopropoxy-2-((1R,4S)-1-methyl-2-oxabicyclo[2.2.1]heptan-4-yl)imidazo[1,2-a]pyridine-6-carboxamide] | 1.6 | 40.4 (≈ 87.2 µM) | 1.4
C[C@@H]1C[C@@H]1n1cccc(NC(=O)c2cn3cc(C45COC(C)(C4)C5)nc3cc2OC2CCC2)c1=O [Example 190, 7-cyclobutoxy-2-(1-methyl-2-oxabicyclo[2.1.1]hexan-4-yl)-N-(1-((1S,2R)-2-methylcyclopropyl)-2-oxo-1,2-dihydropyridin-3-yl)imidazo[1,2-a]pyridine-6-carboxamide trifluoroacetate] | 0.9 | 54.2 | 4.1
CC[C@@H](C)Oc1nc2nc(C34COC(C)(C3)C4)cn2cc1C(=O)Nc1cccn([C@H]2C[C@H]2F)c1=O (single isomer, unassigned) [Example 58] | 0.4 | 72.1 (≈ 150 µM) | 9
CC[C@H](C)Oc1nc2nc(C34CCC(CF)(C3)OC4)cn2cc1C(=O)Nc1cccn(C2CC2)c1=O (stereo partly drawn) [Example 56, 7-((S)-sec-butoxy)-N-(1-cyclopropyl-2-oxo-1,2-dihydropyridin-3-yl)-2-(1-(fluoromethyl)-2-oxabicyclo[2.2.1]heptan-4-yl)imidazo[1,2-a]pyrimidine-6-carboxamide] | 0.6 | 67.5 (≈ 136 µM) | 4.1
C[C@]12CC[C@](c3cn4cc(C(=O)Nc5cccn(C6CC6)c5=O)c(OC5CCC5)cc4n3)(CO1)C2 (single isomer, unassigned) [Example 26] | 0.7 | 65.3 (≈ 138 µM) | 4.1
CC[C@@H](C)Oc1cc2nc(C34COC(CF)(C3)C4)cn2cc1C(=O)Nc1cccn(C2CC2)c1=O (single isomer, unassigned) [Example 14] | 1.3 | 75.7 (≈ 158 µM) | 4.8
C[C@H](Oc1cc2nc(C34COC(C)(C3)C4)cn2cc1C(=O)Nc1cccn(C2C[C@H]2F)c1=O)C(F)F (stereo partly drawn) [Example 184, 7-(((S)-1,1-difluoropropan-2-yl)oxy)-N-(1-((1S,2R)-2-fluorocyclopropyl)-2-oxo-1,2-dihydropyridin-3-yl)-2-(1-methyl-2-oxabicyclo[2.1.1]hexan-4-yl)imidazo[1,2-a]pyridine-6-carboxamide] | 0.2 | 73.4 (≈ 146 µM) | 19.2
COCC12CC(c3cn4cc(C(=O)Nc5cccn([C@H]6C[C@H]6F)c5=O)c(OC5CCC5)nc4n3)(CO1)C2 [Example 128, 7-cyclobutoxy-N-(1-((1S,2R)-2-fluorocyclopropyl)-2-oxo-1,2-dihydropyridin-3-yl)-2-(1-(methoxymethyl)-2-oxabicyclo[2.1.1]hexan-4-yl)imidazo[1,2-a]pyrimidine-6-carboxamide] | 0.3 | 72.5 (≈ 142 µM) | 20.8
CC(C)Oc1cc2nc([C@]34CC[C@H](C3)OC4)cn2cc1C(=O)Nc1cccn(C2CC2)c1=O (single isomer, unassigned) [Example 40] | 0.4 | 70.2 (≈ 157 µM) | 7.5
O=C(Nc1cccn([C@H]2C[C@H]2F)c1=O)c1cn2cc(C34COC(C3)C4)nc2nc1OC1CCC1 (single isomer, unassigned) [Example 167] | 0.2 | 19.2 (≈ 41.2 µM) | 2.3
CC12CCC(c3cn4cc(C(=O)Nc5cccn(C6CC6)c5=O)c(OC5CCC5)cc4n3)(CC1)CO2 [Example 1, 7-cyclobutoxy-N-(1-cyclopropyl-2-oxo-1,2-dihydropyridin-3-yl)-2-(1-methyl-2-oxabicyclo[2.2.2]octan-4-yl)imidazo[1,2-a]pyridine-6-carboxamide] | 0.2 | 56 (≈ 115 µM) | 1.7
CC(C)Oc1c(C(=O)Nc2cccn(C3CC3)c2=O)cn2cc([C@]34CC[C@](C)(C3)OC4)nc2c1F (single isomer, unassigned) [Example 68] | 4.3 | 53.6 (≈ 112 µM) | 2.2
C[C@@H](CF)Oc1cc2nc(C34CCC(C)(C3)OC4)cn2cc1C(=O)Nc1cccn(C2CC2)c1=O (mixture of isomers) [Example 30, N-(1-cyclopropyl-2-oxo-1,2-dihydropyridin-3-yl)-7-(((S)-1-fluoropropan-2-yl)oxy)-2-(1-methyl-2-oxabicyclo[2.2.1]heptan-4-yl)imidazo[1,2-a]pyridine-6-carboxamide] | 0.2 | 46.5 | 11.1
CC(C)Oc1c(C(=O)Nc2cccn([C@H]3C[C@@H]3C)c2=O)cn2cc(C34COC(C)(C3)C4)nc2c1F [Example 146, 8-fluoro-7-isopropoxy-2-(1-methyl-2-oxabicyclo[2.1.1]hexan-4-yl)-N-(1-((1S,2S)-2-methylcyclopropyl)-2-oxo-1,2-dihydropyridin-3-yl)imidazo[1,2-a]pyridine-6-carboxamide] | 0.9 | 29.7 (≈ 61.8 µM) | 1.7
C[C@@H]1C[C@@H]1n1cccc(NC(=O)c2cn3cc(C45COC(C)(C4)C5)nc3nc2OC2CCC2)c1=O [Example 188, 7-cyclobutoxy-2-(1-methyl-2-oxabicyclo[2.1.1]hexan-4-yl)-N-(1-((1S,2R)-2-methylcyclopropyl)-2-oxo-1,2-dihydropyridin-3-yl)imidazo[1,2-a]pyrimidine-6-carboxamide trifluoroacetate] | 0.8 | 49.7 | 4.4
COC12CC(c3cn4cc(C(=O)Nc5cccn(C6CC6)c5=O)c(OC(C)C)cc4n3)(C1)C2 [Example 62, N-(1-cyclopropyl-2-oxo-1,2-dihydropyridin-3-yl)-7-isopropoxy-2-(3-methoxybicyclo[1.1.1]pentan-1-yl)imidazo[1,2-a]pyridine-6-carboxamide] | 0.4 | 58.2 (≈ 130 µM) | 3.6
CC[C@H](C)Oc1nc2nc(C34COC(C)(C3)C4)cn2cc1C(=O)Nc1cccn(C2CC2)c1=O (single isomer, unassigned) [Example 64] | 0.5 | 49.6 (≈ 107 µM) | 5
CC[C@@H](C)Oc1cc2nc([C@@]34CC[C@@](C)(C3)OC4)cn2cc1C(=O)Nc1cccn(C2CC2)c1=O (single isomer, unassigned) [Example 21] | 0.9 | 61.3 (≈ 129 µM) | 3.2
CC(C)Oc1nc2nc([C@]34CC[C@](C)(C3)OC4)cn2cc1C(=O)Nc1cccn([C@H]2CC23CC3)c1=O (single isomer, unassigned) [Example 152] | 0.8 | 24.9 (≈ 50.9 µM) | 1.4
C[C@]12CC[C@](c3cn4cc(C(=O)Nc5cccn(C6CC6)c5=O)c(OC5CCC5)nc4n3)(CO1)C2 (single isomer, unassigned) [Example 17] | 0.5 | 8.5 (≈ 17.9 µM) | 3.9
